Test results from patent US20150175974A1, “PRODUCING SOLIDS AND RELATED MOTHER LIQUORS” (Syngenta Participations AG, priority 2012, published 2015).
Several values for one entry are separate records, joined by “and”; a condition that tells them apart may be missing. Equal entries are not always repeated.

Key:
[1] = Particle size distribution of crystallized TMX (Malvern Mastersizer); format: physicochemical
Protocol: An aqueous solution of TMX at a concentration of 11 mg/ml was prepared. The respective portion of TMX and water was added to an appropriately sized vessel and heated to 60° C. to dissolve the TMX. Once dissolved, phage particles having binding domains selected to bind to TMX were added to the achieve target loading set forth in the Table 1 below. The solution was allowed to cool to room temperature and aged until crystallization was observed. Crystalline products were separated from the liquor by filtration and particle size distribution was measured using a Malvern Mastersizer.

[2] = Crystal shape of TMX crystallized with phage particles (optical and electron microscopy); format: physicochemical; conditions: TMX 11 mg/ml, phage loading C/2 to C (C=37 mg/ml), FIG. 1 and FIG. 2
Protocol: An aqueous solution of TMX at a concentration of 11 mg/ml was prepared. The respective portion of TMX and water was added to an appropriately sized vessel and heated to 60° C. to dissolve the TMX. […] Phage loading was a C, C/2, C/10, C/25, and C/100. The solution was allowed to cool to room temperature and aged until crystallization was observed. Crystalline products were separated from the liquor by filtration and characterized by microscopy.

[3] = average of the three measurements, TMX 11 mg/ml aqueous, cooled from 60° C.
[4] = single measurements, TMX 11 mg/ml aqueous, dissolved at 60° C., cooled to room temperature, crystals filtered, listed as TMX control

SMILES: CN1COCN(Cc2cnc(Cl)s2)/C1=N\[N+](=O)[O-] [TMX, Thiamethoxam]
- Size Dv (0.5) average [1, 3]: 23.1057 μm
- Size Dv (0.95) average [1, 3]: 54.11 μm
- Particle size of TMX crystallized in the presence of phage particles versus control ([1]; phage particles having binding domains selected to bind to TMX, C/25 and C/100): marked reduction
- Size Dv (0.5) [1, 4]: 23.378 μm and 22.048 μm and 23.891 μm
- Size Dv (0.95) [1, 4]: 52.18 μm and 54.16 μm and 55.74 μm
- Crystal shape [2]: more bi-pyramidal shape
